One may read the melting point as the temperature of the solid-liquid transition. In turn, `COCC(C)Oc1cc(Oc2ccc(S(C)(=O)=O)nc2)cc2cc(C3=NCC(CC(N)=O)S3)[nH]c12` (centres undefined) had a melting point of 131 to 132 °C.
Consider `CCCC(CCC)Nc1nc(C)nc(Oc2c(Br)cc(C(C)(C)O)cc2OC)c1[N+](=O)[O-]`, for which the melting point is 119 to 120 °C.
Compound `CNC(=O)c1ccc(-c2ccc3cnc(Nc4ccc(N5CCC(N6CCN(C)CC6)CC5)cc4OC)nn23)cc1` yielded a melting point of 112 to 114 °C.
The figure for `CCCCCCC1CCC(=O)N1c1ccc(Cl)c(NC2=NN(c3c(Cl)cc(Cl)cc3Cl)C(=O)C2)c1` (centres undefined) is 224 to 227 °C.
`Cc1nc2cccnc2c(O)c1C(=O)c1ccccc1` displayed a melting point of over 260 °C.
`CCOC(=O)C(=CNc1coc2ccc(Cl)cc2c1=O)C(=O)OCC` showed a melting point of 143 to 145 °C.
On to `Cc1ccc2c(N)c3c(nc2c1)CCSC3`, for which the melting point fell in the range of 239 to 245 °C.
Regarding `COC(=O)CCCNC(=O)C[C@H]1O[C@H](c2cccc(OC)c2OC)c2cc(Cl)ccc2N(CC(C)(C)C)C1=O`, the melting point is 74 to 75 °C.
On to `COc1ccc2nc(NC(=O)C(CC3CCCC3)c3ccc(S(=O)(=O)NCc4cccs4)cc3)sc2n1` (centres undefined), for which the melting point fell in the range of 263 to 268 °C.
`CC(C)(O)C#Cc1ccc2[nH]ccc2c1`: the melting point is 119 to 123 °C.
In the case of `Clc1ccc(CCC(Cn2ccnc2)Sc2ccccc2Cl)s1` (centres undefined), the melting point was in the range of 121 to 122 °C.
On to `O=C(O)COc1cc(-c2c3ccccc3c(Br)c3sc4ccccc4c23)ccc1Br`, for which the melting point lay in the range of 174 to 175 °C.
For the compound `Cc1c(Br)csc1C#N`, the melting point was in the range of 54 to 58 °C.
The result for `CN1CCN(c2ccc(Nc3ncc4c(n3)S/C(=C/c3ccc(C(N)=O)cc3)C(=O)N4)cc2)CC1` reads 294 to 298 °C.
For the compound `CC(C)(C)C(=O)Nc1cc2c(O)n(I)c(I)nc-2n1`, the melting point worked out at 233 °C.
Compound `CC(C)c1c(Sc2cc(Cl)cc(Cl)c2)nc(CO)n1C` gave a melting point of 167 to 168 °C.
For the compound `Nc1nc(O)c2c(n1)NCC(CCc1nc(C(=O)N[C@@H](CCC(=O)O)C(=O)O)c[nH]1)C2` (some centres undefined), the melting point is over 260 °C.
Consider `CC1(C)COC(c2ccc(F)cc2-c2ccc3c(c2)CCC(Cc2ccccc2)C3=O)=N1` (centres undefined), for which the melting point is 114 to 115 °C.
Compound `CCOC(=O)Nc1ccc(CCBr)c(Cl)c1` displayed a melting point of 112 to 114 °C.
The compound `CC(C)(C1OCCO1)C(O)C(Cc1ccc(Cl)cc1Cl)n1cncn1` (centres undefined) displayed a melting point of 178 to 181 °C.
The figure for `CC(C)c1ccc(-n2ccn(-c3cccc(C(=O)O)c3)c2=O)cc1` is 283 to 285 °C; for `N#CC1(CCNC(=O)C(Cl)Cl)CCCCC1` it is 109 to 114 °C; for `NS(=O)C12CC3CC(CC(C3)C1)C2` (centres undefined) it is 139 to 141 °C.
`CCOC(=O)C1=C(CSCCNC=O)NC(C)=C(C(C)=O)C1c1cccc([N+](=O)[O-])c1` (centres undefined) gave a melting point of 140 to 142 °C.
The figure for `COC(=O)CC(=O)N1CCC(c2ccc(OC)c(OC3CCCC3)c2)CC1` is 78 to 79 °C; for `CC1N=C(c2ccccc2F)c2cc(Br)ccc2NC1=O` (centres undefined) it is 183 to 185 °C; for `CCOC(=O)CCn1cc(CN(C)C)n(C2CCc3ccccc3C2)c1=S` (centres undefined) it is 128 to 130 °C.
The result for `CC(C)(C)OC(=O)c1ncn2c1[C@@H]1CCN1C(=O)c1c(Br)cccc1-2` reads 240 to 241 °C; that for `CC(=O)Nc1cc(C(F)(F)F)ccc1N1CCc2ccccc21`, 153 to 155 °C.
In turn, `CCCCc1ccc2c(c1)CC(C(=O)OCC)=NN2` came in with a melting point of 150 to 152 °C.
The compound `O=C(C1=C(c2ccccc2)c2ccccc2S1=O)c1ccc(O)cc1` (centres undefined) came in with a melting point of 140 to 145 °C.
`CC1=C(C#N)C(=C(C#N)C#N)OC1(C)c1ccc(Cl)c(Cl)c1` (centres undefined) returned a melting point of 226 to 229 °C.
In turn, `O=C(C=Cc1cccc(Br)c1)c1ccc(OC2CCCCO2)cc1` (centres undefined) registered a melting point of 166 to 168 °C.
The figure for `CN1Cc2c(-c3nc(C4CC4)no3)ncn2-c2cccc(Cl)c2C1=O` is 183 to 184 °C; for `CCn1nnnc1C(CO)=C(c1ccc(F)cc1)c1ccc(F)cc1` it is 103 to 111 °C.
In the case of `O=C(Nc1nc(=O)c2cnn3c2n1CC=C3c1cccc(C(F)(F)F)c1)C(F)(F)F`, the melting point lay within 184 to 185 °C.
Compound `CCOC(=O)C1=C(C)NC(=S)N(C(=O)OCc2ccccc2)C1c1cccc([N+](=O)[O-])c1` (centres undefined) displayed a melting point of 122 to 124 °C.
The result for `CCCCCCCC(=O)CCCCCC(=O)N[C@@H](C)C(=O)N[C@H](CCC(=O)OCc1ccccc1)C(N)=O` reads 137 to 141 °C; that for `FC(F)(F)c1cccc(CSc2nnc(-c3ccc4ncsc4c3)o2)c1`, 112 to 113 °C.
On to `COc1ccccc1N1CCN(CCCCCn2c(=O)[nH]c3cscc3c2=O)CC1`, for which the melting point fell in the range of 148 to 153 °C.
As for `CCCCN(CCCC)CCCOc1ccc(S(=O)(=O)c2ccc3ccccc3c2)cc1`, the melting point came out at 90 °C.
`O=C(NCc1cccnc1)c1ccc2n1Cc1ccccc1N(C(=O)c1ccc(-c3ncccn3)cc1)C2` showed a melting point of 234 to 236 °C.
The result for `O=C(NNc1ccccc1)C1CSC(c2cccnc2)N1` (centres undefined) reads 155 °C; that for `CC(C)(C)OC(=O)N1CCN(c2ccc3ncc(Br)n3n2)CC1`, 176 to 179 °C; that for `O=C(Oc1ccc(Cl)cc1)c1ncn2c1[C@@H]1CCCN1C(=O)c1c(Cl)cccc1-2`, 241 to 242 °C.
The compound `CN(C)C(=O)n1cc(C(=O)C2CSC(c3cccnc3)N2C=O)c2ccc(OCc3ccccc3)cc21` (centres undefined) showed a melting point of 90 °C.
`O=C(NCc1ccc(Oc2ccccc2)cc1)C1CCC1` had a melting point of 69 to 71 °C.
The figure for `CC(COc1ccc(CC2SC(=O)NC2=O)cc1)NCC(O)CSc1ccccc1` (centres undefined) is 176 to 177 °C; for `O=C1CC(=O)CC2(CCOCC2)C1` it is 162 to 164 °C.
For `CC(C)(C)C1C(=O)NN=C2CCCCC21` (centres undefined), the melting point is 161 to 164 °C.
For the compound `CC(C(N)=O)c1ccc(NS(=O)(=O)C(C)C)cc1` (centres undefined), the melting point fell in the range of 125 to 127 °C.
Regarding `COC(=O)CCCc1cc2nc(OC)ccc2n1S(=O)(=O)c1ccccc1`, the melting point is 113 to 114 °C.
`CC1(C)OC(=O)Nc2ccc(-c3cccc(F)c3F)cc21` had a melting point of 166 to 167 °C.
`OC(Cn1ccnc1)(c1ccc(-c2ccccc2)cc1)c1ccccc1Cl` (centres undefined) came in with a melting point of 222 °C.
The result for `N#Cc1c(N2CCc3ccccc3CC2)nc(CO)[nH]c1=O` reads 196 to 198 °C; that for `COc1cc2c(cc1OC)-c1nccc3cccc(c13)C2=O`, 250 °C.
The result for `CCc1c(OC)cc(C2CN(C)CC/C2=C\C(=O)OC)cc1OC` (centres undefined) reads 110 to 112 °C; that for `C=Cc1ccc(C(C#N)C#N)cc1`, 40 to 42 °C.
Take `CC(C)(C)C(=O)CN1C(=O)C(NC(=O)Nc2cccc(C(=O)O)c2)CN(C(=O)C(C)(C)C)c2ccccc21` (centres undefined): the melting point fell in the range of 231 to 233 °C.
The result for `O=Cc1cc(-n2cnnn2)cc2ccoc12` reads 174 to 175 °C.
In the case of `CCOC(=O)Nc1csc2cc(OCc3ccccc3)ccc12`, the melting point is 129 to 130 °C.
In turn, `Cc1nc(SCc2cc(O)nc(O)n2)sc1CC(=O)O` returned a melting point of 246 to 247 °C.
Regarding `Cc1ccc2nc(CCl)nc(Cl)c2c1`, the melting point was in the range of 111 to 112 °C.
`O=C(O)CCc1ccc(CO)cc1` showed a melting point of 124 to 126 °C.
In turn, `CNc1nc(C)cc(-n2ccc3ccccc32)n1` had a melting point of 160 to 162 °C.
The result for `N#Cc1ccc(-c2ccc(-c3cccs3)s2)s1` reads 122 to 125 °C; that for `CCC(=O)OC(C#N)C(C#N)c1cccc(OC)c1` (centres undefined), 73 °C; that for `Cn1ccc(-c2nnc(Cc3ccc(F)cc3)o2)c(O)c1=O`, 216 to 218 °C.
`c1cc(CN2CCCCC2)cc(OCCCNc2nccc3ccccc23)c1` came in with a melting point of 103 to 105 °C.
In turn, `Cc1cccc(C)c1Nc1c(-c2c(Cl)cccc2OCC(N)=O)nc2ccc(F)cn12` came in with a melting point of 186 to 187 °C.
The figure for `CCc1nc2ccccc2n(-c2ccc(Cl)cc2)c1=O` is 163 to 165 °C; for `CC(C)(C)[Si](C)(C)OC1C(=O)N(S(=O)(=O)c2ccc(N3CCCCCC3)cc2)CC1O` (centres undefined) it is 121 °C.
As to `N#CC1CN1C(=O)CNC=O` (centres undefined), the melting point lay within 51 to 56 °C.
The figure for `COc1cc2ccccc2cc1N(C)C(=O)N1CCN(c2cc(C)cc(C)c2)CC1` is 134 to 136 °C; for `Cc1cc(NS(=O)(=O)c2ccc(S(N)(=O)=O)cc2)c2[nH]cc(Br)c2c1` it is 196 to 197 °C; for `CC(C)(C)OC(=O)NC1CCCCCC=CC2CC2(C(=O)NS(=O)(=O)C2CC2)NC(=O)C2CC(OC(=O)c3ccc(Cl)c(F)c3)CN2C1=O` (centres undefined) it is 147 to 149 °C.
As for `CCn1ncnc1COc1nc2c(cc1C(C)(C)C)nnn2-c1cc(F)ccc1F`, the melting point lay within 148 to 150 °C.
`COCCc1cc([N+](=O)[O-])cc([N+](=O)[O-])c1` came in with a melting point of 65 °C.
The compound `CCN(CC)CCNC(=O)c1c(I)ccc2c1Nc1ccccc1C2` showed a melting point of 106 to 108 °C.
As for `Cc1cc(NC(=O)OC(C)(C)C)c(C)c2c1OC(C)(C)C2=O`, the melting point is 144 to 145 °C.
`COC(=O)c1ccc(CC(C)=O)cc1` yielded a melting point of 40 to 47 °C.
Consider `CC1(C)CC(=C(c2ccc(O)cc2)c2ccc(S(C)(=O)=O)cc2)CC(C)(C)C1`, for which the melting point lay within 149 to 150 °C.
For `CCc1ccc2c3c(ccc(C=O)c13)-c1ccccc1-2`, the melting point was in the range of 114 to 116 °C.
The result for `c1ccc(C(OC2CCN(CCCNc3ccc4nncn4n3)CC2)c2ccccc2)cc1` reads 167 to 168 °C.
As for `CCOC(=O)c1nnc2ccc(NC(=O)c3ccccc3OC(C)=O)cc2c1O`, the melting point was 240 to 242 °C.
The result for `CN(C(=O)OC(C)(C)C)[C@H](Cc1ccc2ccccc2c1)C(=O)N1CCc2ccccc2C1` reads 121 to 126 °C.
The result for `Cc1ccccc1CC(=NC#N)NC(NC(=O)Cc1ccc(Cl)cc1)C(C)(C)C` (centres undefined) reads 183 to 185 °C.
Compound `COc1c(Nc2ccccc2)ccc2ccccc12` gave a melting point of 43 to 45 °C.
Turning to `CC(=O)NC[C@H]1CN(c2ccc(N3CCC(n4nnnc4Cc4cccs4)CC3)c(F)c2)C(=O)O1`, the melting point was in the range of 149 to 150 °C.

Values taken from a melting point compilation (Tetko et al.; mined from patent text by program, amines drawn as free bases though some values may be those of a salt).
